In paper PMC11272598, “RG7774 (Vicasinabin), an orally bioavailable cannabinoid receptor 2 (CB2R) agonist, decreases retinal vascular permeability, leukocyte adhesion, and ocular inflammation in animal models” (Frontiers in Pharmacology, 2024):

Experiments:
[1] = tested on: LPS-induced leukocyte adhesion; experiment: LPS-induced leukocyte adhesion in rats with EIU (IVM); format: in vivo, Lewis rats; details: IV 1.0 mg/kg, 6 h after LPS
Protocol: Male BALB/c mice aged 8–10 weeks and weighing 21–26 g (Charles River, QC, Canada) were housed in individually ventilated Allentown cages (Allentown Inc., NJ, United States). Maximum density was n = 5 per cage, with the same litter and sex. Male Lewis rats aged 7–10 weeks and weighing 200–300 g (Charles River, QC, Canada) were housed in static cages (Allentown Inc., NJ, United States), n = 2 per cage with the same litter and sex. Both mice and rats were maintained in a controlled environment (21°C–22°C, humidity range 40%–60%, and a 12 h light/dark cycle), with unrestricted access to food and water. All experiments were conducted in accordance with the standards and procedures of the Canadian Council on Animal Care ([CCAC, 2024]) and were approved by the Dalhousie University Committee on Laboratory Animals. The protocol #13-027 was approved for experimental work in mice. […] All experiments were performed and are reported in accordance with the ARRIVE guidelines ([Kilkenny et al., 2010]; [McGrath et al., 2010]). […]
IVM was used for in vivo investigations of LPS-induced leukocyte recruitment as previously described ([Toguri et al., 2014]). […] The depth of anesthesia throughout the procedure was assessed by the absence of a toe-pinch reflex. […]

[2] = biological target: T1, Mouse FAAH (Mus musculus, UniProt O08914); experiment: Mouse FAAH assay (brain); format: biochemical; details: RG7774 10 µM; read-out: Mean ± SEM % inhibition of control, Mouse FAAH
T1 construct: Mouse brain was homogenized in 50 mM Tris-HCl (pH 7.4); from tissue; host or cells: mouse brain, 1000 g supernatant
T1 sequence (O08914 whole entry): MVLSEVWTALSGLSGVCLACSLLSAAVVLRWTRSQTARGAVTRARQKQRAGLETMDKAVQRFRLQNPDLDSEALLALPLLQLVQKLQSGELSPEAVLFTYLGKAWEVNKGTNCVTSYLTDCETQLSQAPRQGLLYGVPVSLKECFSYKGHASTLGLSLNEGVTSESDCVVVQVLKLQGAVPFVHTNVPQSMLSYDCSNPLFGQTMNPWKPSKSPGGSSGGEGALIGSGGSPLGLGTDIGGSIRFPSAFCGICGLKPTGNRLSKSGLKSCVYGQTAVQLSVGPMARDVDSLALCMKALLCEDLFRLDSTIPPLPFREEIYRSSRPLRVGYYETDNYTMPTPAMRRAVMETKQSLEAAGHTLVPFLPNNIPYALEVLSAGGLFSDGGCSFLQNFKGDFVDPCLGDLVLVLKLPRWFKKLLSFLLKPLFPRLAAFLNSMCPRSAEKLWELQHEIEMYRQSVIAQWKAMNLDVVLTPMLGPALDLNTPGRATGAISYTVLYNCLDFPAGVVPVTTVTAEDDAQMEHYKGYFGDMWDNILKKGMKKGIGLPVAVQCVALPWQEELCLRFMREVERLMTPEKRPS
Protocol: Mouse brain was homogenized in 50 mM Tris-HCl (pH 7.4) using a glass potter, centrifuged at 1000 g for 10 min, and the pellet was discarded. The supernatant (50 µg) was incubated with [^14C]-AEA (10 µM) (ARC, MO, USA) at 37°C for 15 min (Tris-HCl, pH 9.0) and reactions were stopped with a 2:1 (v/v) mixture of chloroform/methanol. [^14C]-ethanolamine release in the aqueous phase was measured as previously reported. Mouse supernatants (50 µg) were preincubated with RG7774 (10 µM) for 15 min and added directly to the incubation medium. Purified human FAAH (1.7 µg; Cayman Chemical Company, MI, USA) was incubated with [^14C]-AEA (10 µM) (ARC, MO, USA) at 37°C for 15 min (pH 9.0), as previously described. […] for 15 min with 8 different concentrations of RG7774 (0.1-500 µM) and added directly to the incubation medium (250 µL). Control experiments was carried out in the presence of the FAAH inhibitor, URB-597 (100 nM).

[3] = biological target: Mouse CB1R (Mus musculus, UniProt P47746); experiment: Mouse cAMP assay in N18TG2 cells; format: cell-based; details: RG7774 10 µM, N18TG2 cells; read-out: Mean ± SEM % inhibition of control, Mouse CB1R (cAMP assay)
Chain of Mouse CB1R (P47746 whole entry): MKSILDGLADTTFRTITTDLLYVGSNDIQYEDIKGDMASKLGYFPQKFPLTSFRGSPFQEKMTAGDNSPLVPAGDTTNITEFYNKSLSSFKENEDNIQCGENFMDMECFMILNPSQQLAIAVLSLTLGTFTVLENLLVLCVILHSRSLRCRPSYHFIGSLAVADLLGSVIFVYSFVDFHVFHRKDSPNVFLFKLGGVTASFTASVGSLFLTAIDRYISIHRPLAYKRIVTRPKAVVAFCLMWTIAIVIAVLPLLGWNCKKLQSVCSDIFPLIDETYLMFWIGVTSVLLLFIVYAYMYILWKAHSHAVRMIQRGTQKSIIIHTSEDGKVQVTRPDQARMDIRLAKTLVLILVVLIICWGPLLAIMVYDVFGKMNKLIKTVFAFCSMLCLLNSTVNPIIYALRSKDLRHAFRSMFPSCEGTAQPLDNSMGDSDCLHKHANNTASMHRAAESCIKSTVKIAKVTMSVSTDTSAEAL
Protocol: The effect of RG7774 on the forskolin-stimulated accumulation of cAMP was determined using the LANCE ULTRAcAMP kit (PerkinElmer Life Sciences, MA, USA), according to the manufacturer’s instructions. Briefly, N18TG2 cells preincubated for 30 min with 1-methyl-3-isobutylxanthine (1 mM) were added to 0.5 µM forskolin preincubated with or without RG7774 for 15 min. Reactions were incubated for 30 min at 37°C and Time-resolved fluorescence was measured using a Victor V Multilabel counter (PerkinElmer Life Sciences). Data were transformed into cAMP concentrations using a standard curve.

With `Cn1nnnc1Cn1nnc2c(N3CC[C@H](O)C3)nc(C(C)(C)C)nc21` [RG7774, (S)-1-(5-tert-butyl-3-[(1-methyl-1H-tetrazol-5-yl)methyl]-3H-[1,2,3]triazolo[4,5-d]pyrimidin-7-yl)pyrrolidin-3-ol] the “decrease in leukocyte adhesion compared to vehicle control” value [1] was 60%, the inhibition at 10 µM [2] was 6 ± 8.7% and the inhibition at 10 µM [3] was 16.6%.
